The target in one assay is Syk kinase (Homo sapiens, UniProt P43405). The experiment in a line: SYK Enzymatic Assay (Z-LYTE Tyr 2 peptide). The format is biochemical. The following applies: 8 concentrations 1 μM down to 0.0003 μM. The gist of the method:
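Z-LYTE format using Tyr 2 peptide. After the 1 h room-temperature kinase reaction, development reagent was added for 1 h, then stop reagent. Fluorescence was read at 445 and 520 nm. Compounds were tested at 8 concentrations, 1 μM down to 0.0003 μM (1:3 dilutions).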

A further assay relates to RBL-2H3 cells. The experiment in a line: IgE-induced Beta-hexosaminidase secretion in RBL-2H3 cells. The format is cell-based. As to conditions: DNP-BSA stimulation. The gist of the method: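 RBL-2H3 cells sensitized overnight with 0.5 ug/ml SPE-7 IgE, washed, preincubated with compound 20 min at 37° C, then stimulated with DNP-BSA (150 ng/mL stock) for 45 min. Released β-hexosaminidase measured on supernatant with 1 mM 4-nitrophenyl N-acetyl-β-D-glucosaminide, pH 4.5, 1.5 hr at 37° C; absorbance 405 nm after carbonate quench.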

Where [1] appears, read: Rattus norvegicus, RBL-2H3, IgE-induced Beta-hexosaminidase secretion.

pIC50: −log10 of the molar value.

For `CC(=O)N1CC(C)(c2ccc(-c3cc4nccnc4c(OC[C@@H]4CN(S(C)(=O)=O)CCO4)n3)cc2)C1` [Compound 321], the pIC50 at Syk kinase is 7.85; in the assay on RBL-2H3 cells (setting [1]), 6.90.
With `CC(C)(CO)c1ccc(-c2cc3nccnc3c(OC[C@@H]3CN(S(C)(=O)=O)CCO3)n2)cc1` [Compound 288], the pIC50 is 7.60 on Syk kinase, 7.32 in the assay with RBL-2H3 cells (IgE-induced Beta-hexosaminidase secretion) and 7.07 in the assay on RBL-2H3 cells (setting [1]).
For the molecule `CS(=O)(=O)N1CCO[C@H](COc2nc(-c3ccc(N4CCOCC4)cc3)cc3nccnc23)C1` [Compound 12], the figures for the pIC50 against Syk kinase and with RBL-2H3 cells (setting [1]) were 7.62 and 7.68, respectively.
The matching figures for `CN(C)c1ccc(-c2cc3nccnc3c(OC[C@@H]3CN(C(=O)C4CCCC4)CCO3)n2)cc1` [Compound 98]: 7.26 and 6.64.
The matching figures for `CN(C)c1ccc(-c2cc3nccnc3c(OC[C@@H]3CN(C(=O)c4cccnc4)CCO3)n2)cc1` [Compound 78]: 7.21 and 7.13.
The matching figures for `CS(=O)(=O)N1CCO[C@H](COc2nc(-c3ccc(CN4CCOCC4)cc3)cc3nccnc23)C1` [Compound 258]: 7.09 and 6.73.
As for `O=C(C(F)F)N1CCO[C@H](COc2nc(-c3ccc(N4CCNCC4)cc3)cc3nccnc23)C1` [Compound 6, (S)-2,2-difluoro-1-(2-((7-(4-(piperazin-1-yl)phenyl)pyrido[4,3-b]pyrazin-5-yloxy)methyl)morpholino)ethanone], the pIC50 is 7.47 against Syk kinase and 6.59 in the assay with RBL-2H3 cells (Rattus norvegicus, IgE-induced Beta-hexosaminidase secretion).
For the molecule `O=S(=O)(C1CC1)N1CCO[C@H](COc2nc(-c3ccc(N4CCOCC4)cc3)cc3nccnc23)C1` [Compound 83], the pIC50 on Syk kinase was 7.13; in the assay with RBL-2H3 cells (setting [1]) it was 7.04.
In the same order, the values of `CCS(=O)(=O)N1CCN(c2ccc(-c3cc4nccnc4c(OC[C@@H]4CN(C(C)=O)CCO4)n3)cc2)CC1` [Compound 25] are 7.17 and 6.81.
For `CC(C)c1ccc(-c2cc3nccnc3c(OC[C@@H]3CN(C(=O)CO)CCO3)n2)cc1` [Compound 195], the pIC50 was 7.20 at Syk kinase and 6.89 with RBL-2H3 cells (setting [1]).

These data come from patent US20170152258A9, “Substituted Pyridopyrazines as Syk Inhibitors” (HUTCHISON MEDIPHARMA LIMITED, priority 2012, published 2017).
